Test results taken from patent US10231956B2, “3-(1H-pyrrolo[3,2-C]pyridin-2-YL)-1 H-pyrazolo[4,3-B]pyridines and therapeutic uses thereof” (Samumed, LLC, priority 2015, dated 2019).
pEC50: −log10 of the molar value.

Experiments:
Format in all cases: cell-based
[1] = test system: IL-6; assay: IL-6 inhibition in LPS-stimulated THP-1 cells (HTRF); details: Homo sapiens; for pEC50: LPS 500 ng/mL, 22 hours, IL6 HTRF; for inhibition at 10 µM: given for EC50 >10 μM, LPS, IL6, 10 μM, read-out: percent inhibition at 10 μM
[2] = test system: SW480 colon cancer cells; assay: Cell viability assay (CellTiter-Blue) in SW480 colon cancer cells; details: Homo sapiens; for pEC50: 96 h, four days, CellTiter-Blue; for inhibition at 10 µM: given for EC50 >10 μM, read-out: percent inhibition at 10 μM
In short: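 SW480 cells (~2×10^3 per well) were exposed to compound for four days at 37 °C/5% CO2, using 8-point 1:3 dilutions from 10 μM to 0.0045 μM in duplicate. Viability was read by resazurin reduction (CellTiter-Blue, ~3 h, Ex 560/Em 590 nm). EC50 came from non-linear regression; above 10 μM, percent inhibition at 10 μM is given.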

[3] = test system: primary human mesenchymal stem cells (hMSCs); assay: Induction of chondrogenesis in primary human mesenchymal stem cells (nodule count); details: 144 h, 6 days; for Emax: TGF-β3 10 ng/mL as positive control, read-out: Max. Activity as % TGF-β3 activity; for EC50: concentration required to induce 50% levels of chondrogenesis vs TGF-β3, read-out: Conc (nM) of 50% TGF-β3 activity
Method: Representative compounds were screened using primary human mesenchymal stem cells (hMSCs) to determine their ability to induce chondrogenesis (process by which cartilage is developed).
Human Mesenchymal Stem Cell Culture: Primary human mesenchymal stem cells (hMSCs) were purchased from Lonza (Walkersville, Md.) and expanded in Mesenchymal Stem Cell Growth Media (Lonza). Cells between passage 3 and 6 were used for the experiments.
Compound Screening: Each compound was dissolved in DMSO as a 10 mM stock and used to prepare compound source plates. Serial dilution (1:3, 6-point dose-response curves from 2700 nM to 10 nM) and compound transfer was performed using the ECHO 550 (Labcyte, Sunnyvale, Calif.) into 96-well clear bottom assay plates (Greiner Bio-One) with appropriate DMSO backfill for a final DMSO concentration of 0.03%. hMSCs were plated at 20,000 cells/well in 250 μL/well Incomplete Chondrogenic Induction Medium (Lonza; DMEM, dexamethasone, ascorbate, insulin-transferrin-selenium [ITS supplement], gentamycin-amphotericin [GA-1000], sodium pyruvate, proline and L-glutamine). TGF-β3 (10 ng/mL) was used as a positive control for differentiation while negative control wells were treated with 75 nL DMSO for normalization and calculating EC50 values. Cells were incubated at 37° C. and 5% CO2 for 6 days. To image chondrogenic nodules, the cells were fixed using 4% formaldehyde (Electron Microscopy Sciences), and stained with 2 μg/mL Rhodamine B (Sigma-Aldrich) and 20 μM Nile Red (Sigma-Aldrich) [Johnson K., et. al, A Stem Cell-Based Approach to Cartilage Repair, Science, (2012), 336(6082), 717-721]. The nodules imaged (4 images per well at 4× magnification) by excitation at 531 nm and emission at 625 nm and quantified using the CellInsight CX5 (Thermo Scientific). Number of nodules in each well was normalized to the average of 3 DMSO treated wells on the same plate using Excel (Microsoft Inc.). The normalized averages (fold change over DMSO) of 3 replicate wells for each compound concentration were calculated. Due to solubility limitations of some of the compounds, curve fitting was incomplete leading to inaccurate EC50 determinations.
Using TGF-β3 as a positive control, the concentration of representative compounds required to induce 50% levels of chondrogenesis is reported. In addition, the maximum activity of each compound and the respective dose that each compound reached maximum chondrogenesis activity is reported.

## CS(=O)(=O)NCc1cc(F)cc(-c2nccc3[nH]c(-c4n[nH]c5ccc(-c6cncc(NC(=O)C7CCCCC7)c6)nc45)cc23)c1 [Compound 499, N-(5-(3-(4-(3-Fluoro-5-(methylsulfonamidomethyl)phenyl)-1H-pyrrolo[3,2-c]pyridin-2-yl)-1H-pyrazolo[4,3-b]pyridin-5-yl)pyridin-3-yl)cyclohexanecarboxamide]
[1]
  pEC50: 6.27
[2]
  pEC50: 5.85
[3]
  Emax: 50%
  EC50: 10 nM

## CS(=O)(=O)NCc1cc(F)cc(-c2nccc3[nH]c(-c4n[nH]c5ccc(-c6cncc(CN7CCC(F)(F)C7)c6)nc45)cc23)c1 [Compound 502, N-(3-(2-(5-(5-((3,3-Difluoropyrrolidin-1-yl)methyl)pyridin-3-yl)-1H-pyrazolo[4,3-b]pyridin-3-yl)-1H-pyrrolo[3,2-c]pyridin-4-yl)-5-fluorobenzyl) methanesulfonamide]
[1]
  pEC50: 6.46
[2]
  pEC50: 6.09
[3]
  Emax: 148%
  EC50: 10 nM

## CS(=O)(=O)NCc1cc(F)cc(-c2nccc3[nH]c(-c4n[nH]c5ccc(-c6cncnc6)nc45)cc23)c1 [Compound 503, N-(3-Fluoro-5-(2-(5-(pyrimidin-5-yl)-1H-pyrazolo[4,3-b]pyridin-3-yl)-1H-pyrrolo [3,2-c]pyridin-4-yl)benzyl)methanesulfonamide]
[1]
  pEC50: < 5.00
  inhibition at 10 µM: 7.6%
[2]
  pEC50: < 5.00
  inhibition at 10 µM: 15.3%
[3]
  Emax: 51%
  EC50: 2700 nM

## CS(=O)(=O)NCc1cc(F)cc(-c2nccc3[nH]c(-c4n[nH]c5ccc(-c6ccccn6)nc45)cc23)c1 [Compound 504, N-(3-Fluoro-5-(2-(5-(pyridin-2-yl)-1H-pyrazolo[4,3-b]pyridin-3-yl)-1H-pyrrolo[3,2-c]pyridin-4-yl)benzyl)methanesulfonamide]
[1]
  pEC50: < 5.00
  inhibition at 10 µM: 0%
[2]
  pEC50: < 5.00
  inhibition at 10 µM: 44.7%
[3]
  Emax: 24%

## Fc1ccc(-c2nccc3[nH]c(-c4n[nH]c5ccc(-c6cncc(OC7CCNCC7)c6)nc45)cc23)cc1 [Compound 528, 3-(4-(4-Fluorophenyl)-1H-pyrrolo[3,2-c]pyridin-2-yl)-5-(5-(piperidin-4-yloxy)pyridin-3-yl)-1H-pyrazolo[4,3-b]pyridine]
[1]
  pEC50: 6.14
[2]
  pEC50: 5.28
[3]
  Emax: 54%
  EC50: 10 nM

## Fc1ccccc1-c1nccc2[nH]c(-c3n[nH]c4ccc(-c5cn[nH]c5)nc34)cc12 [Compound 539, 3-(4-(2-Fluorophenyl)-1H-pyrrolo[3,2-c]pyridin-2-yl)-5-(1H-pyrazol-4-yl)-1H-pyrazolo[4,3-b]pyridine]
[1]
  pEC50: 6.99
[2]
  pEC50: 5.90
[3]
  Emax: 174%
  EC50: 100 nM

## Cc1ncc(-c2ccc3[nH]nc(-c4cc5c(-c6ccncc6)nccc5[nH]4)c3n2)n1C [Compound 573, 5-(1,2-Dimethyl-1H-imidazol-5-yl)-3-(4-(pyridin-4-yl)-1H-pyrrolo[3,2-c]pyridin-2-yl)-1H-pyrazolo[4,3-b]pyridine]
[1]
  pEC50: < 5.00
  inhibition at 10 µM: 0%
[2]
  pEC50: < 5.00
  inhibition at 10 µM: 25.6%
[3]
  Emax: 104%
  EC50: 30 nM

## c1cc2[nH]c(-c3n[nH]c4ccc(-c5cncc(OC6CCCCC6)c5)nc34)cc2c(N2CCCCC2)n1 [Compound 607, 5-(5-(Cyclohexyloxy)pyridin-3-yl)-3-(4-(piperidin-1-yl)-1H-pyrrolo[3,2-c]pyridin-2-yl)-1H-pyrazolo[4,3-b]pyridine]
[1]
  pEC50: 5.75
[2]
  pEC50: 6.52
[3]
  Emax: 163%
  EC50: 10 nM

## O=C(CC1CCNCC1)Nc1cncc(-c2ccc3[nH]nc(-c4cc5c(N6CCCCC6)nccc5[nH]4)c3n2)c1 [Compound 609, N-(5-(3-(4-(Piperidin-1-yl)-1H-pyrrolo[3,2-c]pyridin-2-yl)-1H-pyrazolo[4,3-b]pyridin-5-yl)pyridin-3-yl)-2-(piperidin-4-yl)acetamide]
[1]
  pEC50: 5.53
[2]
  pEC50: < 5.00
  inhibition at 10 µM: 9.7%
[3]
  Emax: 22%

## c1cc2[nH]c(-c3n[nH]c4ccc(-c5cncc(OCCN6CCCC6)c5)nc34)cc2cn1 [Compound 658, 5-(5-(2-(Pyrrolidin-1-yl)ethoxy)pyridin-3-yl)-3-(1H-pyrrolo[3,2-c]pyridin-2-yl)-1H-pyrazolo[4,3-b]pyridine]
[1]
  pEC50: 5.97
[2]
  pEC50: 5.68
[3]
  Emax: 23%
